# Results reported in patent publication US20250186541A1, “DLL3 TARGETING PEPTIDES AND CONSTRUCTS THEREOF” (MARIANA ONCOLOGY INC., priority 2023, published 2025).
# Numbered stars: 1 amine (or outer) side, 2 acyl side, 3 side chain; on linkers, the order of the positions; unused ones are H or OH. Bridge positions count the residues as written; N and C are the ends. Square brackets hold non-standard residues; d marks the D form. Peptide text beside a SMILES is read from it. * marks the point of attachment. Ala(piperidin-4-yl) = O=C([C@H](CC1CCN([*:3])CC1)N[*:1])[*:2]; DOTA = O=C(O)CN1CCN(CC(=O)O)CCN(CC(=O)*)CCN(CC(=O)O)CC1; 1Nal = N[C@@H](Cc1cccc2ccccc12)C(=O)O; 2Nal = N[C@@H](Cc1ccc2ccccc2c1)C(=O)O; NMetBuAla = CN[C@@H](CC(C)(C)C)C(=O)O; Gly(4-THP) = N[C@H](C(=O)O)C1CCOCC1; Gly(cPent) = N[C@H](C(=O)O)C1CCCC1; NMeChg = CN[C@H](C(=O)O)C1CCCCC1; Chg = N[C@H](C(=O)O)C1CCCCC1; αMeP = C[C@@]1(C(=O)O)CCCN1
# Biological target: T1, human DLL3 (Homo sapiens, UniProt Q9NYJ7)
# T1 construct: biotin (biotinylated)
# T1 sequence (Q9NYJ7 27-618): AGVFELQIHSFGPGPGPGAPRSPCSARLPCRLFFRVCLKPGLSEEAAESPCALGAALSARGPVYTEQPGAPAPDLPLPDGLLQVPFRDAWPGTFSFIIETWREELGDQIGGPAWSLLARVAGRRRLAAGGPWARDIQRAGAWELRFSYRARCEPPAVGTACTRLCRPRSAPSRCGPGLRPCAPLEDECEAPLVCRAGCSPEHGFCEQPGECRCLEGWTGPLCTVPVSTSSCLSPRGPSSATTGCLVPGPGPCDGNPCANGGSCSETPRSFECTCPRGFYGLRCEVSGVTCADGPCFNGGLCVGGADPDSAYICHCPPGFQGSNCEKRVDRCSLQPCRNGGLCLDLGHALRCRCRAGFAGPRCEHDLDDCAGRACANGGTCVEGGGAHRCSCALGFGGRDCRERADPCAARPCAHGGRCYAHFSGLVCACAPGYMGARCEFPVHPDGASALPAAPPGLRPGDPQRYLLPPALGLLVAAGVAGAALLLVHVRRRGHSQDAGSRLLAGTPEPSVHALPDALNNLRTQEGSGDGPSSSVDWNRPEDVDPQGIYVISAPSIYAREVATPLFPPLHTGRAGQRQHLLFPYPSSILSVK
# Test: Affinity determination by Surface Plasmon Resonance (SPR), Biacore, 1:1 binding model
# Settings: biotinylated human DLL3 on streptavidin chip, 25° C.; NB = nonbinding
# Procedure, shortened: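 SPR with biotinylated human DLL3 captured on a streptavidin chip, with a reference surface subtracted. Samples were injected at several concentrations at 100 μL/min in phosphate buffer with 137 mM NaCl, 2.7 mM KCl, 0.05% P20 and 2% DMSO. Kinetic and affinity constants came from a 1:1 binding fit.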
row,Structure (SMILES),Kd [nM]
1,"CSCC[C@H](NC(C)=O)C(=O)N[C@@H](CO)C(=O)N[C@@H](CC(=O)O)C(=O)N[C@H]1CSSC[C@@H](C(=O)N2CCC[C@H]2C(=O)N[C@@H](Cc2ccccc2)C(=O)N[C@@H](CC(=O)O)C(N)=O)NC(=O)[C@H](CC(N)=O)NC(=O)[C@H](Cc2c[nH]c3ccccc23)NC(=O)[C@H](CCC(N)=O)NC(=O)[C@H](CC(C)C)NC(=O)[C@H](C)NC1=O [compound 22, Ac-M-S-D-C(3)-(L-Ala)-L-Q-W-N-C(3)-P-F-D-CONH2] (Ac-MSDCALQWNCPFD-NH2; disulfide 4-10)",> 100
2,"CC(=O)N[C@H](C(=O)N[C@@H](CO)C(=O)N[C@@H](CC(=O)O)C(=O)N[C@H]1CSSC[C@@H](C(=O)N2CCC[C@@]2(C)C(=O)N[C@@H](Cc2ccccc2)C(=O)N[C@@H](CC(=O)O)C(=O)N[C@H](CCCCNC(=O)CN2CCN(CC(=O)O)CCN(CC(=O)O)CCN(CC(=O)O)CC2)C(N)=O)NC(=O)[C@H](CC(N)=O)NC(=O)[C@H](Cc2c[nH]c3ccccc23)NC(=O)[C@H](C2CCOCC2)NC(=O)[C@H](CC(C)C)NC(=O)[C@H](Cc2cccc3ccccc23)NC1=O)C1CCCCC1 [compound 133, Ac-(Chg)-S-D-C(3)-(1Nal)-L-(THPG)-W-N-C(3)-(aMe-P)-F-D-[D-Lys(DOTA)]-NH2] (Ac-[Chg]SDC[1Nal]L[Gly(4-THP)]WNC[αMeP]FD[dK](DOTA)-NH2; disulfide 4-10)",> 30

# Next, values leading:
row,Kd [nM],Structure (SMILES)
1,> 30,"CC(=O)N[C@H](C(=O)N[C@@H](CO)C(=O)N[C@@H](CC(=O)O)C(=O)N[C@H]1CSSC[C@@H](C(=O)N2CCC[C@@]2(C)C(=O)N[C@@H](Cc2ccccc2)C(=O)N[C@@H](CC(=O)O)C(=O)N[C@H](CCCCNC(=O)CN2CCN(CC(=O)O)CCN(CC(=O)O)CCN(CC(=O)O)CC2)C(N)=O)NC(=O)[C@H](CC(N)=O)NC(=O)[C@H](Cc2ccc3ccccc3c2)NC(=O)[C@H](CC2CCNCC2)NC(=O)[C@H](C2CCCCC2)N(C)C(=O)[C@H](Cc2cccc3ccccc23)NC1=O)C1CCCCC1 [compound 183, Ac-Chg-S-D-C(3)-(1Nal)-(NMe-Chg)-[3-(4-piperidinyl)-Ala]-(2Nal)-N-C(3)-(aMe-P)-F -D-[D-Lys(DOTA)]-NH2] (Ac-[Chg]SDC[1Nal][NMeChg][Ala(piperidin-4-yl)][2Nal]NC[αMeP]FD[dK](DOTA)-NH2; disulfide 4-10)"
2,1.18,"CC(=O)N[C@H](CO)C(=O)N[C@@H](CC(=O)O)C(=O)N[C@H]1CSSC[C@@H](C(=O)N2CCC[C@@]2(C)C(=O)N[C@@H](Cc2ccccc2)C(=O)N[C@@H](CC(=O)O)C(=O)N[C@H](CCCCNC(=O)CN2CCN(CC(=O)O)CCN(CC(=O)O)CCN(CC(=O)O)CC2)C(N)=O)NC(=O)[C@H](CC(N)=O)NC(=O)[C@H](Cc2c[nH]c3ccccc23)NC(=O)[C@H](CCC(N)=O)NC(=O)[C@H](C2CCCC2)NC(=O)[C@H](Cc2cccc3ccccc23)NC1=O [compound 141, Ac-(D-Ser)-D-C(3)-(1Nal)-(cPenG)-Q-W-N-C(3)-(aMe-P)-F-D-D-Lys(DOTA)-CONH2] (Ac-[dS]DC[1Nal][Gly(cPent)]QWNC[αMeP]FD[dK](DOTA)-NH2; disulfide 3-9)"
3,2.43,"CC(=O)N[C@@H](CO)C(=O)N[C@@H](CC(=O)O)C(=O)N[C@H]1CSSC[C@@H](C(=O)N2CCC[C@@]2(C)C(=O)N[C@@H](Cc2ccccc2)C(=O)N[C@@H](CC(=O)O)C(=O)N[C@H](CCCCNC(=O)CN2CCN(CC(=O)O)CCN(CC(=O)O)CCN(CC(=O)O)CC2)C(N)=O)NC(=O)[C@H](CC(N)=O)NC(=O)[C@H](Cc2ccc3ccccc3c2)NC(=O)[C@H](CC2CCNCC2)NC(=O)[C@H](CC(C)(C)C)N(C)C(=O)[C@H](Cc2cccc3ccccc23)NC1=O [compound 178, Ac-S-D-C(3)-(1Nal)-(NMe-Tba)-[3-(4-piperidinyl)-Ala]-(2Nal)-N-C(3)-(aMe-P)-F -D-[D-Lys(DOTA)]-NH2] (Ac-SDC[1Nal][NMetBuAla][Ala(piperidin-4-yl)][2Nal]NC[αMeP]FD[dK](DOTA)-NH2; disulfide 3-9)"
